# Laboratory results taken from paper PMC3024946, “Hydroxyproline-containing collagen analogs trigger the release and activation of collagen-sequestered proMMP-2 by competition with prodomain-derived peptide P33-42” (Fibrogenesis & Tissue Repair, 2011).
# “Also recorded” adds a separate entry of the source.
# How the values were obtained:
# proMMP-2 / CI [1] = target: T1, proMMP-2 / CI (Homo sapiens, UniProt P08253); experiment: SPR, competition of proMMP-2 binding to CI, nonactivating buffer
# T1 construct: prodomain-containing proMMP-2 or proMMP-9; purchased Invitek
# T1 sequence (P08253 30-660 limits assumed): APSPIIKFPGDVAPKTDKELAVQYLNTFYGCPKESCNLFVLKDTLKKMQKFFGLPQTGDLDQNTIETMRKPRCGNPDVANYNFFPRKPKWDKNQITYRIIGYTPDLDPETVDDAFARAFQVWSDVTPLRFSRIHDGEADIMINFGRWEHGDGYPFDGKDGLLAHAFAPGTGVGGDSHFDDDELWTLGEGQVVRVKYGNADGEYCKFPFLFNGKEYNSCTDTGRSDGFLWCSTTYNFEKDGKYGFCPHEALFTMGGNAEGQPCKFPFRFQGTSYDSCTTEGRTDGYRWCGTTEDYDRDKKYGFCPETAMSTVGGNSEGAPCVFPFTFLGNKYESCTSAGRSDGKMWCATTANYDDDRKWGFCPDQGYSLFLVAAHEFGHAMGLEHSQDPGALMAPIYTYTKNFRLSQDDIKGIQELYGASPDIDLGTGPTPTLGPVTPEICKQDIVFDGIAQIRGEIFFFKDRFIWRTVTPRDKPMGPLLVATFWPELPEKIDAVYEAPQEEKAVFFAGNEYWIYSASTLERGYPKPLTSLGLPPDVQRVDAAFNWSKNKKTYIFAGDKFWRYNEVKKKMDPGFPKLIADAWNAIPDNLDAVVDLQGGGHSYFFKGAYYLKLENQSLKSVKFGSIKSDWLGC
# Protocol: (§1) Sensor chip preparations and SPR measurements were performed using a BiacoreX device and the Bia-evaluation software (version 3.2; Biacore, Uppsala, Sweden). The pepsin-resistant triple-helical part of human fibrillar CI (100 μg/ml) in 10 mM acetate coupling buffer, pH 4.8, was immobilized to a dextran matrix-sensor chip at a flow rate of 5 μl/min, resulting in 5,500 resonance units from CI covalently linked via its primary amino groups. The control flow cell was prepared using the coupling buffer without CI. Surfaces were activated and blocked as described previously. […] The effects of (GPO)10, GAP, (POG)5, (GPP)10 and P33-42 on MMP-2 and MMP-9 binding to CI and their enzymatic activity were determined by adding the binding competitors to the (pro- and act)MMP-2 and MMP-9 solution in 10- to 150-fold molar excesses. Effects independent of MMP-2 and MMP-9 activity were monitored in the presence of Ro 28-2653 (1 μM) during SPR analysis. […] Kinetic parameters were analyzed using the 1:1 binding model with drifting baseline and subtraction of the control flow cell binding from sensorgrams obtained with immobilized CI. Binding constants (Kd) were calculated from the association (ka) and dissociation rates (kd) obtained from individual binding curves at different concentrations. […]
# actMMP-9 / CI = target: T2, actMMP-9 / CI (Homo sapiens, UniProt P14780); experiment: SPR, competition of actMMP-9 binding to CI, nonactivating buffer; conditions: actMMP-9 (100 nM) binding to CI with 10× (GPO)10; PBS, 0.05% Tween 20
# T2 construct: purchased Invitek
# T2 sequence (P14780 107-707 limits assumed): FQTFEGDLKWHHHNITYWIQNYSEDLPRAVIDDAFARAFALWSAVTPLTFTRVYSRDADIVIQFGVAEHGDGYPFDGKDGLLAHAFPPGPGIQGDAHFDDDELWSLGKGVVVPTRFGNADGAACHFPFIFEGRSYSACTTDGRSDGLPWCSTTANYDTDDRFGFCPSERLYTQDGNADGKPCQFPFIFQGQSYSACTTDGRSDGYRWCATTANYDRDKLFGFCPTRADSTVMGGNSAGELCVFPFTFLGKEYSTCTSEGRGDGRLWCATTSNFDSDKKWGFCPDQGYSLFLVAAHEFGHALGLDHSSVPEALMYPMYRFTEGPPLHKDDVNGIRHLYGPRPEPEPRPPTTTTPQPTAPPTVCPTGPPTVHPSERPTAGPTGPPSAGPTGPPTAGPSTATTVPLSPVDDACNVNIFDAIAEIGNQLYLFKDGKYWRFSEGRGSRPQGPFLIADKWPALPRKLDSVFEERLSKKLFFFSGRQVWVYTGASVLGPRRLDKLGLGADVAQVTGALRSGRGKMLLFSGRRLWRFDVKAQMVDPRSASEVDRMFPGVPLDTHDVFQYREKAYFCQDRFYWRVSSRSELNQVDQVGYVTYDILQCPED
# Protocol: as §1
# proMMP-9 / CI = target: T3, proMMP-9 / CI (Homo sapiens, UniProt P14780); experiment: SPR, competition of proMMP-9 binding to CI, nonactivating buffer
# T3 construct: prodomain-containing proMMP-2 or proMMP-9; purchased Invitek
# T3 sequence (P14780 20-707 limits assumed): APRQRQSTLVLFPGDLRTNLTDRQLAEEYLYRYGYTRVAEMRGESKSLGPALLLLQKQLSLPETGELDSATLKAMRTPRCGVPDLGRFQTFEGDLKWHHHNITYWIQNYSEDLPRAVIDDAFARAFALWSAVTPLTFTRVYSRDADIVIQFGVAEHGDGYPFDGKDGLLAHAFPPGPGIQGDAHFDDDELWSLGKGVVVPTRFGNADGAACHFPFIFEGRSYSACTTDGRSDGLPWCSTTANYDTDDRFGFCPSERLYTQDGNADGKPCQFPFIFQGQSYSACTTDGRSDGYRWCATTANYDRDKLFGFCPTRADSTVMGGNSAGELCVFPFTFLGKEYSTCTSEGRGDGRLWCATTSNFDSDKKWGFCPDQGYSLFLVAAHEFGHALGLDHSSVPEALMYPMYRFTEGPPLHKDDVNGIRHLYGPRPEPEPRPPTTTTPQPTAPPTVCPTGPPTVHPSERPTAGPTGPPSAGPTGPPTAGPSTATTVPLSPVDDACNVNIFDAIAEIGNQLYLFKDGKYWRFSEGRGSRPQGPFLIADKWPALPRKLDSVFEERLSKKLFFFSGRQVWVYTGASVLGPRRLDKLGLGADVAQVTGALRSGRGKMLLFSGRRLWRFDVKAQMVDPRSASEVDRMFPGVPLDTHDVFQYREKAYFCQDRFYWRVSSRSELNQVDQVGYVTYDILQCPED
# Protocol: as §1
# [2] = test system: Cy2-proMMP-2 bound to cirrhotic human liver tissue; experiment: Release / prevention of binding of Cy2-proMMP-2 in cirrhotic liver sections; conditions: 10-fold molar excess, fluorescence microscopy
# Protocol: ProMMP-2 was labeled using the FluoroLink Cy2 Labeling Kit according to the manufacturer's instructions (Amersham Biosciences, Freiburg, Germany). Unbound fluorescent dye was removed by ultrafiltration (Nanosep, Lund, Sweden), and labeling success was monitored using a fluorescence microplate reader (λex/em, 489/506 nm). Serial cirrhotic human liver sections were covered with 1.2 μg/ml Cy2-proMMP-2 in 50 mM Tris·HCl, pH 7.4, containing 1 mM CaCl2 or with buffer alone, and were incubated in a dark humidified chamber for 24 h at 4°C. To study effects of (GPO)10, a 10-fold molar excess in relation to proMMP-2 was added to slides prior to or after Cy2-proMMP-2 binding. Slides were washed with PBS, air-dried, and rinsed with deionized water. Bound Cy2-proMMP-2 was detected by fluorescence microscopy (Olympus, Hamburg, Germany).
# proMMP-2 / CI [3] = target: T1, proMMP-2 / CI; experiment: SPR, competition of proMMP-2 binding to CI, MMP activity buffer; conditions: proMMP-2 (25-150 nM), 10-fold molar excess, no inhibitor
# Protocol: as §1
# ProMMP-2 = experiment: DQ-gelatine degradation assay with MMP-2; assay type: biochemical, human; conditions: 5 h at 25°C
# Protocol: Enzymatic activities of MMPs were studied spectrofluorimetrically by cleavage of fluorogenic substrates in MMP activity buffer within 2 to 5 h. For gelatinases 800 nM MCA-Pro-Leu-Gly-Leu-Dnp-Dap-Ala-Arg-NH2 (λex/em 328/393 nm; Bachem, Bubendorf, Switzerland) or 10 μg/ml DQ-gelatine were used, according to the method described by Knight et al. for collagenases 800 nM MCA-Pro-Cha-Gly-Nva-His-Ala-Dpa-NH2 (λex/em 280/360 nm; Anaspec, San José, CA, USA). In some experiments, proMMP-2 was fully activated in the presence of 1 mM APMA prior to the kinetic measurements. A quantity of 50 ng pro- or actMMP-2 alone or mixed with 10- to 150-fold molar excesses of (GPO)10, GAP, P33-42 or mixtures of (GPO)10 and P33-42, were added to CI-coated, BSA-coated (1 μg/well both) or uncoated wells containing 150 μl of the respective substrate solution. The peptide P33-42 was purchased from the Institute of Biochemistry (Humboldt-University, Berlin, Germany). The influence of CI on MMP-2 enzymatic activity against the quenched fluorescent substrate could be excluded. Background subtraction (measurement without MMPs) was applied to all curves. All experiments were performed with a fluorescence microplate reader (Molecular Devices, Sunnyvale, CA, USA) and black 96-well microtiter plates with a clear bottom (Greiner bio-one, Frickenhausen, Germany).
substance,measurement,setting,value
"H-Gly-Cys-Hyp-(Gly-Pro-Hyp)10-Gly-Cys-Hyp-Gly-NH2 [(GPO)10, triple-helical Hyp-containing collagen analog]",Off rate,"proMMP-2 / CI [1]; proMMP-2 (100 nM) binding to CI with 10× (GPO)10, PBS, 0.05% Tween 20",0.37 s⁻¹
same,effect on binding to CI,"proMMP-2 / CI [1]; proMMP-2, 10-fold molar excess",only slightly impaired
same,Off rate,actMMP-9 / CI,0.61 s⁻¹
same,Off rate,"proMMP-9 / CI; proMMP-9 (100 nM) binding to CI with 10× (GPO)10, PBS, 0.05% Tween 20",0.22 s⁻¹
same,effect on binding to CI,"proMMP-9 / CI; proMMP-9, 10-fold molar excess",more pronounced effects
same,prevention of binding of Cy2-proMMP-2,[2]; coincubation,prevented gelatinase binding
same,release of bound Cy2-proMMP-2,[2]; subsequent treatment,promoted effective release of the sequestered enzyme
same,effect on SPR signal on CI,proMMP-2 / CI [3],reduction in resonance units below baseline levels
same,DQ-gelatine cleavage by proMMP-2,ProMMP-2; 50- to 100-fold molar excesses,significantly enhanced
same,DQ-gelatine cleavage by proMMP-2,ProMMP-2; 150-fold molar excess,shift from an active MMP-2 to an enzymatically blocked enzyme; also recorded: reduction of MMP-2 gelatinolytic activity
